In ChEMBL document CHEMBL1201862, “PubChem BioAssay data set” (2004):
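Following 48 hours of exposure in 96-well plates, responses at five concentrations were used to interpolate endpoints linearly. Abbreviation: GI50, concentration required for 50% inhibition of growth.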 The source made the active and inactive calls. No stated cut-off is given here; in the data, active = GI50 up to about 1.1 µM and inactive = higher.

Assays:
Assay in all cases: growth of human tumour cells (NCI), 48 h
ACHN = tested on: ACHN
BT-549 = tested on: BT-549
COLO 205 = tested on: COLO 205
HCC 2998 = tested on: HCC 2998
HOP-62 = tested on: HOP-62
HT-29 = tested on: HT-29
IGROV-1 = tested on: IGROV-1
LOX IMVI = tested on: LOX IMVI
MDA-N = tested on: MDA-N
MOLT-4 = tested on: MOLT-4
NCI-H226 = tested on: NCI-H226
OVCAR-4 = tested on: OVCAR-4
OVCAR-5 = tested on: OVCAR-5
RXF 393 = tested on: RXF 393
SF-539 = tested on: SF-539
SK-MEL-28 = tested on: SK-MEL-28
SK-OV-3 = tested on: SK-OV-3
SN12C = tested on: SN12C
SW-620 = tested on: SW-620
UACC-62 = tested on: UACC-62

Measured: GI50

COc1ccc(-c2nc(N)c(C#N)c3c2CCSc2ccc(C)cc2-3)cc1OC
inactive: ACHN 19.9 µM | BT-549 8.59 µM | COLO 205 5.51 µM | HCC 2998 16.3 µM | HOP-62 42.8 µM | HT-29 14.2 µM | IGROV-1 23.1 µM | LOX IMVI 14.8 µM | MDA-N 3.79 µM | MOLT-4 3.49 µM | NCI-H226 14.8 µM | OVCAR-4 16.7 µM | OVCAR-5 47.2 µM | RXF 393 13.7 µM | SF-539 17.1 µM | SK-MEL-28 39.7 µM | SK-OV-3 10.9 µM | SN12C 17.3 µM | SW-620 22.1 µM | UACC-62 10.9 µM

O=C1/C(=C/c2ccc(O)cc2)CCCC1CN1CCCCC1 (stereo not given)
inactive: ACHN 1.73 µM | BT-549 2.55 µM | COLO 205 2.16 µM | HCC 2998 4.76 µM | HOP-62 15.7 µM | HT-29 2.62 µM | IGROV-1 1.97 µM | LOX IMVI 1.56 µM | MDA-N 3.47 µM | MOLT-4 2.2 µM | NCI-H226 7.14 µM | OVCAR-4 12.9 µM | OVCAR-5 16.3 µM | RXF 393 13.7 µM | SF-539 3.94 µM | SK-MEL-28 5.43 µM | SK-OV-3 16.6 µM | SN12C 2.29 µM | SW-620 1.88 µM | UACC-62 1.83 µM

C[N+](C)(C)CC1CCCCCCCCCCC1=O (stereo not given)
inactive: ACHN > 100 µM | BT-549 > 100 µM | COLO 205 > 100 µM | HCC 2998 > 100 µM | HOP-62 39.4 µM | HT-29 > 100 µM | IGROV-1 > 100 µM | LOX IMVI > 100 µM | MDA-N > 100 µM | MOLT-4 > 100 µM | NCI-H226 > 100 µM | OVCAR-4 > 100 µM | OVCAR-5 > 100 µM | RXF 393 > 100 µM | SF-539 > 100 µM | SK-MEL-28 > 100 µM | SK-OV-3 > 100 µM | SN12C > 100 µM | SW-620 > 100 µM | UACC-62 > 100 µM

COc1ccccc1OCC(=N/NC(=O)c1ccncc1)/N=C/c1ccncc1
inactive: ACHN > 100 µM | BT-549 > 100 µM | COLO 205 > 100 µM | HCC 2998 > 100 µM | HOP-62 > 100 µM | HT-29 > 100 µM | IGROV-1 > 100 µM | LOX IMVI > 100 µM | MDA-N > 100 µM | MOLT-4 > 100 µM | NCI-H226 > 100 µM | OVCAR-4 > 100 µM | OVCAR-5 > 100 µM | RXF 393 > 100 µM | SF-539 > 100 µM | SK-MEL-28 > 100 µM | SK-OV-3 > 100 µM | SN12C > 100 µM | SW-620 > 100 µM | UACC-62 > 100 µM

C/N=C(N)/N=C(\N)Nc1cc2ccccc2c2ccccc12
inactive: ACHN 13.5 µM | BT-549 15.1 µM | COLO 205 13.7 µM | HCC 2998 2.44 µM | HOP-62 17.5 µM | HT-29 15 µM | IGROV-1 17.9 µM | LOX IMVI 13 µM | MDA-N 13.9 µM | MOLT-4 10.4 µM | NCI-H226 20.7 µM | OVCAR-4 14.7 µM | OVCAR-5 17.5 µM | RXF 393 14.9 µM | SF-539 15.2 µM | SK-MEL-28 17.8 µM | SK-OV-3 16.3 µM | SN12C 12.5 µM | SW-620 16.6 µM | UACC-62 14.9 µM

O=C(Nn1c(-c2ccccc2)nc2ccccc2c1=O)c1ccc([N+](=O)[O-])cc1
inactive: ACHN > 100 µM | BT-549 55.7 µM | COLO 205 > 100 µM | HCC 2998 > 100 µM | HOP-62 > 100 µM | HT-29 > 100 µM | IGROV-1 > 100 µM | LOX IMVI > 100 µM | MDA-N > 100 µM | MOLT-4 > 100 µM | NCI-H226 46.3 µM | OVCAR-4 > 100 µM | OVCAR-5 > 100 µM | RXF 393 49.2 µM | SF-539 > 100 µM | SK-MEL-28 72.3 µM | SK-OV-3 > 100 µM | SN12C > 100 µM | SW-620 > 100 µM | UACC-62 45.2 µM
